According to PMC6891695, “Evaluation of Antifouling Potential and Ecotoxicity of Secondary Metabolites Derived from Red Algae of the Genus Laurencia” (Marine Drugs, 2019):
Like-named read-outs stand apart in the source and are kept apart here.

What was measured:
in vivo = type: in vivo; details: Amphibalanus amphitrite, in vivo, read-out: LC50 Mortality; for LC50 at 24 h: 24 h exposure; for LC50 at 48 h: 48 h exposure; for LC50 at 72 h: 72 h exposure
Description: (§1) Adult A. amphitrite (Cirripedia, Balanidae) were collected from boat docks at Port Mikrolimano and Floisvos, Athens, Greece. Animals were cleaned of epibionts with a small hard brush and meticulously identified as individuals of the species. Adult barnacles were kept in separate aerated glass tanks (20 L) containing 200-μm filtered natural seawater at 27 °C and a 12:12 L:D photoperiod. Tanks were fed with 24-h hatched Artemia sp. (Branchiopoda) nauplii and Tetraselmis suecica (Chlorodendrophyceae) and Skeletonema costatum (Bacillariophyceae) algae each day and seawater was changed on alternate days. Upon stress to induce oviposition (exposure to air for 24 h or immersion in fresh water for 5 h), adults were returned to seawater for larval release. Hatched nauplii were attracted to a point light source, collected and placed into a beaker containing 2 or 3 L of 0.7 μm GF/F (GE Healthcare, Little Chalfont, UK )-filtered natural seawater at a density of approximately 1–2 nauplii/mL with gentle aeration. Nauplii were maintained at 27 °C at a 12:12 L:D photoperiod on a diet of C. gracilis (Bacillariophyceae) provided at a density of 2 × 10^5 cells/mL. Cultured in these conditions, nauplii metamorphosed to cyprids in 5 days. Aliquots of these cyprids were collected with a wide-mouthed Pasteur pipette and aged at 4 °C for 1 day prior to use in settlement assays. Only batches of cyprids that were active and had numerous oil cells, representing energy reserves, were used in settlement assays.
(§2) Assays were conducted by adding 10 cyprids into individual wells of a 24-well polystyrene sterile microplate (Orange Scientific, Braine l’Alleud, Belgium) with 2 mL of artificial sea water (ASW) (25‰) and various concentrations of the chemical compounds as listed in Table 1. These experiments were repeated at least three times with four replicates for each concentration of any given compound (n = 120 cyprids/compound). Stock solutions for all compounds were prepared in methanol (Scharlab, Barcelona, Spain) and serial dilutions were prepared in 0.7 μm (GF/F, GE Healthcare, Little Chalfont, UK), filtered sea water to have a final concentration of 2.5% methanol in each assay solution. Plates were covered and sealed with Parafilm® to avoid evaporation and incubated at 25 °C away from any light source and examined after 24, 48 and 72 h. Each animal was inspected under a stereomicroscope and its condition was recorded. […] Both permanently attached and metamorphosed individuals were counted as settled or juveniles. The remainder were counted as ‘no metamorphosis’, i.e. animals that responded to light touch and were still cyprids at the end of the experiments with no overt signs of metamorphosis.
(§3) For EC50 or IC50 (the concentration that results in 50% stimulation or inhibition relative to the control) calculations in GraphPad Prism v.6, all data were fitted to the curve according to the following models for normalized response: Y = 100/(1 + 10^((X − LogIC50))) or Y = 100/(1 + 10^((LogEC50 − X))) depending on the trend of the curve.

cyprids of A. amphitrite = assay: whole plant or invertebrate; type: in vivo; details: for EC50 / IC50: Amphibalanus amphitrite; for EC50: read-out: EC50 No Metamorphosis; for EC50 values for settlement inhibition of barnacle cyprids (in words): consistently, 24-72 h
Description: as §1, §2, §3

RTL-W1 cell line = assay: RTL-W1 crystal violet assay (cell viability); type: cell-based, rainbow trout; details: for EC50: Oncorhynchus mykiss, RTL-W1, Crystal violet assay, 48 h incubation; for crystal violet assay EC50 (in words): RTL-W1
Description: (§4) The RTL-W1 cell line, a non-transformed rainbow trout liver cell line that has already been used in environmental toxicity assays, was established from the normal liver of an adult rainbow trout by proteolytic dissociation of liver fragments. RTL-W1 cells were cultured in 75 cm^2 culture flasks (Orange Scientific, Braine l’Alleud, Belgium) at 20 °C in Leibovitz’s (L-15, Sigma-Aldrich, St. Louis, MO, USA) medium supplemented with 5% fetal bovine serum (FBS) and 1% L-glutamine in CO2-free incubator. For the cytotoxicity assays of the selected secondary metabolites, cells were seeded at 3 × 10^4 cells/well density in a 96-well tissue culture plate (Orange Scientific Braine l’Alleud, Belgium) in 100 μL culture medium/well for 2 days before the assays. Three different cytotoxicity protocols were used: 1) The alamar blue/resazurin fluorometric/colorimetric cell viability assay to assess the metabolic capacity and mitochondrial function; 2) the crystal violet cell viability assay for indirect quantification of cell death; and 3) the neutral red cell proliferation assay for lysosomal activity. Two days after seeding the cells, cultures were incubated with various concentrations of selected secondary metabolites at 20 °C for 48 h before cell viability was assessed. […] For the alamar blue/resazurin fluorometric/colorimetric cell viability assay, 100 μL of 3 μg/100 μL Resazurin sodium salt (Sigma-Aldrich, St. Louis, MO, USA) in incubation medium was added on each well and incubated under sterile conditions at 20 °C for 4 h. For the crystal violet cell viability assay, after 48 h of incubation with each secondary metabolite, the culture medium was aspirated and cells were washed twice with sterile dd. H2O. The final wash was aspirated and 50 μL of 0.5% (w/v) crystal violet staining solution (20% methanol in dd. H2O) was added to each well followed by incubation for 20 min at room temperature on a bench rocker with a frequency of 20 oscillations per minute. The staining solution was then aspirated and the plate was washed four times with sterile dd. H2O and left to air-dry without its lid for 3 h at room temperature. Next, 200 μL of methanol was added to each well, and the plate was incubated with its lid on for 20 min at room temperature on a bench rocker with a frequency of 20 oscillations per minute. For the neutral red cell proliferation assay, after 48 h of incubation with each secondary metabolite, the culture medium was aspirated and cells were washed twice with phosphate-buffered saline (PBS, pH 7.4). Cells were then incubated with 100 μL of a 40 μg/mL neutral red staining solution in culture medium at 20 °C for 4 h followed by two washes with 150 μL of PBS. Then cells were incubated with 100 μL neutral red destain solution (50% ethanol, 49% dd. H2O, 1% glacial acetic acid) for 10 min on a bench rocker with a frequency of 80 oscillations per minute. Absorbance was read at 570 nm for alamar blue/resazurin and crystal violet and at 540 nm for neutral red using a Tecan infinite M200 Pro microplate reader. For each assay and each secondary metabolite, a minimum of four independent dose–response experiments with three replicates each were carried out. Calculations were carried out using detailed formulas (AbCam, Cambridge, UK, and results were analyzed with GraphPad Prism v.6.
as §3

HEK293 cell line = assay: HEK293 crystal violet assay (cell viability); type: cell-based, human; details: for EC50: Homo sapiens, HEK293, Crystal violet assay, 48 h incubation; for cytotoxicity in crystal violet assay (in words): HEK293
Description: as §4
HEK293 cells, a human embryotic kidney cell line, were obtained from ATCC (ATCC® CRL-1573™) at passage 37 of the original clone and used at passage 38. Cells were cultured routinely in 75 cm^2 culture flasks (Orange Scientific, Braine l’Alleud, Belgium) at 37 °C (5% CO2) in DMEM cell culture medium (Biosera) supplemented with 10% FBS (Sigma-Aldrich, St. Louis, MO, USA) and 1% L-glutamine. All assay conditions and protocols were identical to those described above for RTL-W1 cells with the exception that incubations were carried out at 37 °C. […]

[1] = 24 h, read-out: IC50 Settlement
[2] = 48 h, read-out: IC50 Settlement
[3] = 72 h, read-out: IC50 Settlement

SMILES | LC50 at 24 h (in vivo) [µM] | LC50 at 48 h (in vivo) [µM] | LC50 at 72 h (in vivo) [µM] | EC50 (cyprids of A. amphitrite; 24 h) [µM] | IC50 (cyprids of A. amphitrite; [1]) [µM] | EC50 (cyprids of A. amphitrite; 48 h) [µM] | IC50 (cyprids of A. amphitrite; [2]) [µM] | EC50 (cyprids of A. amphitrite; 72 h) [µM] | IC50 (cyprids of A. amphitrite; [3]) [µM] | EC50 values for settlement inhibition of barnacle cyprids (in words) (cyprids of A. amphitrite) | EC50 (RTL-W1 cell line) [µM] | EC50 (HEK293 cell line) [µM] | IC50 (cyprids of A. amphitrite; read-out: IC50 settlement-inhibiting activity) [µM] | cytotoxicity in crystal violet assay (in words) (HEK293 cell line) | crystal violet assay EC50 (in words) (RTL-W1 cell line) | animals not progressing to metamorphosis (cyprids of A. amphitrite; in vivo)
C=C(C1CCC(C)(O)C(Br)C1)C1C(Br)C2C(CCC2(C)O)C1(C)C (centres unmarked) [Compound 19, neorogioldiol] | 413 | 366 | 573 | 52.8 | 0.4 | 57.9 | 0.915 | 70.4 | 0.756 | sub-micromolar | 12.8 | 434 |  |  |  | 
CC1=C2CC[C@@](C)(Cl)[C@@H](Br)C[C@]2(C)[C@@H](C)[C@@H](Br)[C@@H]1O [Compound 9, perforenol] | 76.2 | 116 | 49.1 | 38.2 | 0.52 | 47.4 | 0.66 | 57.8 | 0.5 | sub-micromolar | 16 | 81.1 | ~0.5 | mild cytotoxicity |  | 
C=CC(C)(O)CC[C@@H]1C(=C)CC[C@@H](Br)[C@@]1(C)CCC1OC1(C)C (some centres unmarked) [Compound 18] | 26.2 | 26.3 | 20.3 | 45.4 | 0.046 | 50.4 | 0.076 | 48.5 | 0.316 | sub-micromolar | 0.456 | > 1000 |  |  | sub-micromolar | 
CC(C)[C@@H]1CC=C[C@H]2[C@H]3[C@](C)(CC[C@]12CBr)[C@@H](Br)CC[C@@]3(C)O [Bromosphaerol, reference compound] | 17.9 | 4.57 | 2.5 | 0.45 | 0.58 | 0.267 | 0.624 | 0.561 | 0.836 |  | 0.575 | 97.1 |  | mild cytotoxicity | sub-micromolar | large percentage of animals not progressing to metamorphosis
